# Measurements published in ChEMBL document CHEMBL4819038, “Structure based design and synthesis of novel Toll-like Receptor 2 (TLR 2) lipid antagonists” (Bioorg Med Chem Lett, 2021).
# Experiments:
# Toll-like receptor 2 [1] = biological target: T1, Toll-like receptor 2 (Homo sapiens, UniProt O60603); experiment: Antagonist activity at human TLR2 expressed in HEK-Blue cells assessed as inhibition of Pam3CSK4-induced TLR2/TLR1 activation by measuring decrease in NFkappaB activation pretreated for 2 hrs followed by incubation with agonist for 18 hrs by SEAP assay; format: cell-based, HEK-Blue hTLR2
# Toll-like receptor 2 [2] = biological target: T1, Toll-like receptor 2; experiment: Antagonist activity at human TLR2 expressed in HEK-Blue cells assessed as inhibition of Pam2CSK4-induced TLR2/TLR6 activation by measuring decrease in NFkappaB activation pretreated for 2 hrs followed by incubation with agonist for 18 hrs by SEAP assay; format: cell-based, HEK-Blue hTLR2
# [3] = Stability of the compound in simulated gastric fluid; format: ADME; conditions: simulated gi fluid
# [4] = Stability of the compound in PBS buffer/EtOH; format: physicochemical
# T1 sequence (O60603 whole entry): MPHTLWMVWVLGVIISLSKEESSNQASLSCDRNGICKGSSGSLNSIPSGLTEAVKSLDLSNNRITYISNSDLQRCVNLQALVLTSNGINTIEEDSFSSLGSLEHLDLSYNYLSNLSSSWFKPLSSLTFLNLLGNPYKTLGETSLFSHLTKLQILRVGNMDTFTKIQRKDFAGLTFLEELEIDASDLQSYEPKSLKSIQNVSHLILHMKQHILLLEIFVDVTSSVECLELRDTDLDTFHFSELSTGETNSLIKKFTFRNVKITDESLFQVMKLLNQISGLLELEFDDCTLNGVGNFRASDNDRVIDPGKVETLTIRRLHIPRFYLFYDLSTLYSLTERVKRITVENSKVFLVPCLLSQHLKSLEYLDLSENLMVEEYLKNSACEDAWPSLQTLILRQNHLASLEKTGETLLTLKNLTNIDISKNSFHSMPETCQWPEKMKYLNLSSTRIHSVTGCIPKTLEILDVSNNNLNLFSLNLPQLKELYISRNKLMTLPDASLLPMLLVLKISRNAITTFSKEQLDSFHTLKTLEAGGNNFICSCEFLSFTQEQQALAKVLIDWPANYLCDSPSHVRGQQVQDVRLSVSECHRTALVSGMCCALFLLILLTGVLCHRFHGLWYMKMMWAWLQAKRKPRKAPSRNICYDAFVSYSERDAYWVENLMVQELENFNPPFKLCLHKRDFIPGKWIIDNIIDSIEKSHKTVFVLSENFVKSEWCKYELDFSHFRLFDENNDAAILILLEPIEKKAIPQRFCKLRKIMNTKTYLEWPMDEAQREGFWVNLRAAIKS
Compound,IC50 (Toll-like receptor 2 [1]) [µM],IC50 (Toll-like receptor 2 [2]) [µM],Stabilty [3] [h],Stabilty [4] [h]
CCCCCCCCCCCCCCOCC(CNC(=O)CC[C@H](NC(=O)OCC1c2ccccc2-c2ccccc21)C(=O)O)OCCCCCCCCCCCCCC (some centres not stated),8.7,13.3,–,–
CCCCCCCCCCCCCCOCC(CNC(=O)[C@H]1CCCN1)OCCCCCCCCCCCCCC (some centres not stated),14.3,> 30,–,–
CCCCCCCCCCCCCCOCC(CNC(=O)[C@@H](CCCCN)NCc1ccccc1)OCCCCCCCCCCCCCC.Cl (some centres not stated),–,–,> 1,> 1
CCCCCCCOC(CNC(=O)[C@H](CCCCN)NCc1ccccc1)COC (some centres not stated),> 30,> 30,–,–
CCCCCCCCCCCCCCNC(=O)[C@H](CCCCN)NCc1ccccc1,14.5,11.3,–,–
CCCCCCCCCCCCCCOCC(CNC(=O)c1cccc(C2CCNCC2)c1)OCCCCCCCCCCCCCC.Cl (configuration not stated),–,–,> 1,> 1
CCCCCCCCCCCCCCOCC(CNC(=O)CCCCCN)OCCCCCCCCCCCCCC (configuration not stated),> 20,> 30,–,–
CCCCC/C=C\C/C=C\CCCCCCCCOCC(CNC(=O)c1cccc(C2CCNCC2)c1)OCCCCCCCC/C=C\C/C=C\CCCCC (configuration not stated),3.3,16.1,–,–
CCCCC/C=C\CCCCCCCOCC(CNC(=O)c1cccc(C2CCNCC2)c1)OCCCCCCC/C=C\CCCCC (configuration not stated),18.5,16.9,–,–
CCCCCCCCCCCCCCOCC(CNC(=O)[C@H](CCCCN)NCc1ccc(F)cc1)OCCCCCCCCCCCCCC (some centres not stated),2.9,> 30,–,–
CCCCCCCOCCNC(=O)[C@H](CCCCN)NCc1ccccc1,22.6,13.7,–,–

# Continued by falling IC50 (Toll-like receptor 2 [1]), values first:
IC50 (Toll-like receptor 2 [1]) [µM],IC50 (Toll-like receptor 2 [2]) [µM],Stabilty [3] [h],Stabilty [4] [h],Compound
2.8,27.9,–,–,CCCCCCCCCCCCCCOCC(CNC(=O)[C@H](CCCCN)NCc1ccc(-c2ccccc2)cc1)OCCCCCCCCCCCCCC (some centres not stated)
2.6,> 30,–,–,CCCCCCCCCCCCCCOCC(CNC(=O)C1(NC(=O)OCc2ccccc2)CCNCC1)OCCCCCCCCCCCCCC (configuration not stated)
2.3,> 30,–,–,CCCCCCCCCCCCCCOCC(CNC(=O)[C@@H](CCCCN)NC(=O)OCc1ccccc1)OCCCCCCCCCCCCCC (some centres not stated)
1.8,16.7,–,–,CCCCCCCCCCCCCCOCC(CNC(=O)C(CC1CCNCC1)NC(=O)OCC1c2ccccc2-c2ccccc21)OCCCCCCCCCCCCCC (configuration not stated)
1.6,> 30,–,–,CCCCCCCCCCCCCCOCC(CNC(=O)[C@H](CCCCN)NC(=O)OCC1c2ccccc2-c2ccccc21)OCCCCCCCCCCCCCC (some centres not stated)
